From patent US11485727B2, “N-methyl, n-(6-(methoxy)pyridazin-3-yl) amine derivatives as autotaxin (ATX) modulators” (Boehringer Ingelheim International GmbH, priority 2019, dated 2022)
Where two headings read alike, the source gives them in different places.

Columns and labels:
ATX in human whole blood = ATX in human whole blood (Homo sapiens (Human), UniProt Q13822); experiment: Assay B: Whole-Blood ATX Assay; format: biochemical
Method: 45 μL human whole-blood was supplemented with 5 μL of the test compound, dissolved in phosphate-buffered saline (concentration range 0.12 nM-100 μM). This mixture was incubated for 1 h at 37° C. and stopped by addition of 100 μL 40 mM disodium hydrogen phosphate buffer containing 30 mM citric acid (pH 4) and 1 μM 17:0 LPA (internal standard). LPA was extracted by addition of 500 μL 1-butanol, followed by 10-min centrifugation at 4000 rpm, 4° C. From the resultant organic supernatant, a 200 μL aliquot was transferred into a 96-deep-well plate and transferred to the RapidFire-based MS/MS measurement.
The MS was operated in negative mode with a source temperature of 550° C., curtain gas=35, gas 1=65, and gas 2=80. The following transitions and MS parameters (DP: declustering potential and CE: collision energy) for the respective LPAs were determined: 18:2 LPA at 433.2/152.8, DP=−150, CE=−27 and 17:0 LPA at 423.5/152.8, DP=−100.
The formation of 18:2 LPA was monitored and evaluated as ratio to 17:0 LPA.

LPA levels = details: as disclosed in C. Kuttruff, et al.; cited from earlier work
[1] = human whole-blood, 1 h at 37° C., formation of 18:2 LPA, read-out: Human whole blood LPA IC50

IC50 (ATX in human whole blood; [1]) | Structure (SMILES) | other results
3.5 nM | CC(=O)N1CCC2(CC1)CN(c1ccc(CNc3ccc(OCc4ccc(C(F)(F)F)nc4)nn3)cn1)C2 [Example 2.17] | 
6.8 nM | CC(=O)N1CCN(c2ccc(CNc3ccc(OCc4ccc(C(F)F)nc4)nn3)nc2)CC1 [Example 2.4] | 
3.9 nM | CC(=O)N1CCC2(CC1)CN(c1ccc(CNc3ccc(OCc4ccc(C(F)(F)F)nc4)nn3)cc1)C2 [Example 2.22] | 
3.2 nM | CC(=O)N1CC2CC1CN2c1ccc(CNc2ccc(OCc3ccc(C(F)F)nc3)nn2)cc1 (stereo not drawn) [Example 2.6] | 
2.4 nM | FC(F)(F)c1ccc(COc2ccc(NCc3ccc(N4CCN(C5COC5)CC4)cc3)nn2)cn1 [Example 2.8] | 
2.2 nM | FC(F)c1ccc(COc2ccc(NCc3ccc(N4CCN(C5COC5)CC4)cc3)nn2)cn1 [Example 2.10] | 
4.1 nM | CC(=O)N1CCC2(CC1)CN(c1ccc(CNc3ccc(OCc4ccc(C(F)F)nc4)nn3)cn1)C2 [Example 2.18] | 
4.7 nM | CC(=O)N1CCN(c2ccc(CNc3ccc(OCc4ccc(C(F)(F)F)nc4)nn3)cc2)CC1 [Example 2.2] | 
7 nM | CC(=O)N1CCN(c2ccc(CNc3ccc(OCc4ccc(C(F)F)nc4)nn3)c(C(F)(F)F)c2)CC1 [Example 2.7] | 
3.6 nM | CC(=O)N1CC2CC1CN2c1ccc(CNc2ccc(OCc3ccc(C(F)(F)F)nc3)nn2)cc1 (stereo not drawn) [Example 2.23] | 
4.1 nM | CC(=O)N1CC2(C1)CN(c1ccc(CNc3ccc(OCc4ccc(C(F)(F)F)nc4)nn3)cc1F)C2 [Example 2.9] | 
2.8 nM | CC(=O)N1C[C@@H]2CN(c3ccc(CNc4ccc(OCc5ccc(C(F)F)nc5)nn4)cc3)C[C@@H]2C1 [Example 2.14] | 
4.3 nM | CC(=O)N1CCN(c2ccc(CNc3ccc(OCc4cnc(C(F)F)c(F)c4)nn3)cc2)CC1 [Example 2.12] | 
4.4 nM | CC(=O)N1CCN(c2ccc(CNc3ccc(OCc4ccc(C(F)F)nc4)nn3)cn2)CC1 [Example 2.3] | 
1.4 nM | CC(=O)N1CC2(C1)CN(c1ccc(CNc3ccc(OCc4ccc(C(F)(F)F)nc4)nn3)c(F)c1)C2 [Example 2.21] | 
5.1 nM | CC(=O)N1CCC2(CC1)CN(c1ccc(CNc3ccc(OCc4ccc(C(F)F)nc4)nn3)nc1)C2 [Example 2.16] | 
4 nM | CC(=O)N[C@H]1[C@@H]2CN(c3ccc(CNc4ccc(OCc5ccc(C(F)(F)F)nc5)nn4)cc3)C[C@@H]21 [Example 2.11] | 
4 nM | CC(=O)N1CCN(c2ccc(CNc3ccc(OCc4ccc(C(F)(F)F)nc4)nn3)cn2)CC1 [Example 2.5] | 
4.7 nM | CC(=O)N(C)C1CCN(c2ccc(CNc3ccc(OCc4ccc(C(F)(F)F)nc4)nn3)cc2)CC1 [Example 2.1, N-methyl-N-[1-(4-{[(6-{[6-(trifluoromethyl)pyridin-3-yl]methoxy}pyridazin-3-yl)amino]methyl}phenyl)piperidin-4-yl]acetamide] | 
9.3 nM | CC(=O)N1CCN(c2ccc(CNc3ccc(OCc4ccc(C(F)(F)F)nc4)nn3)nc2)CC1 [Example 2.15] | 
3.7 nM | CC(=O)N1CC2CCC1CN2c1ccc(CNc2ccc(OCc3ccc(C(F)(F)F)nc3)nn2)cc1 (stereo not drawn) [Example 2.20] | 

Further lines, the molecule ahead of its results:

Structure (SMILES) | IC50 (ATX in human whole blood; [1]) | other results
CC(=O)N1CC[C@@H]2CN(c3ccc(CNc4ccc(OCc5ccc(C(F)(F)F)nc5)nn4)cc3)C[C@@H]2CC1 [Example 4] | 7.1 nM | 
CC(=O)N1CCN(c2ccc(CNc3ccc(OCc4ccc(C(F)F)nc4)nn3)cc2)CC1(C)C [Example 1.7] | 12.4 nM | 
O=C(NC[C@@H]1[C@H]2CN(C(=O)OCc3cc(C(F)(F)F)cc(C(F)(F)F)c3)C[C@@H]12)c1ccc2[nH]nnc2c1 |  | LPA levels in vivo (LPA levels): significantly reduces
CC(=O)N1CCN(c2ccc(CNc3ccc(OCc4ccc(C(F)F)nc4)nn3)cc2F)CC1 [Example 1.3] | 1.6 nM | 
CC(=O)N1CCN(c2ccc(CNc3ccc(OCc4ccc(C(F)F)nc4)nn3)c(F)c2)CC1 [Example 1.4] | 2.8 nM | 
CN1CC2(CC1=O)CN(c1ccc(CNc3ccc(OCc4ccc(C(F)F)nc4)nn3)cc1)C2 [Example 1.5] | 2 nM | 
CC(=O)N1CC2(C1)CN(c1ccc(CNc3ccc(OCc4ccc(C(F)F)nc4)nn3)cc1)C2 [Example 1.2] | 1 nM | 
CC(=O)N1CCC2(CC1)CN(c1ccc(CNc3ccc(OCc4ccc(C(F)F)nc4)nn3)cc1)C2 [Example 1.6] | 8.7 nM | 
CC(=O)N1CC2(C1)CN(c1ccc(CNc3ccc(OCc4ccc(C(F)(F)F)nc4)nn3)cc1)C2 [Example 1.1, 1-(6-(4-(((6-((6-(trifluoromethyl)pyridin-3-yl)methoxy)pyridazin-3-yl)amino)methyl)phenyl)-2,6-diazaspiro[3.3]heptan-2-yl)ethan-1-one] | 1.7 nM | 
CC(=O)N1CCN(c2ccc(CNc3ccc(OCc4ccc(C(F)F)nc4)nn3)cc2)CC1 [Example 3, 1-[4-(4-{[(6-{[6-(Difluoromethyl)pyridin-3-yl]methoxy}pyridazin-3-yl)amino]methyl}-phenyl)piperazin-1-yl]ethan-1-one] | 1.9 nM | 
CC(=O)N1C[C@@H]2[C@H](C1)[C@H]1CN(c3ccc(CNc4ccc(OCc5ccc(C(F)(F)F)nc5)nn4)cc3)C[C@@H]21 [Example 5, 1-((3aR,3bS,6aR,6bS)-5-(4-(((6-((6-(trifluoromethyl)pyridin-3-yl)methoxy)pyridazin-3-yl)amino)methyl)phenyl)octahydrocyclobuta[1,2-c:3,4-c′]dipyrrol-2(1H)-yl)ethan-1-one] | 7.5 nM | 
CC(=O)N1CC2CCC(C1)N2c1ccc(CNc2ccc(OCc3ccc(C(F)(F)F)nc3)nn2)cc1 [Example 2.19] |  | IC50 (ATX in human whole blood): 2 nM
